The source of these data is patent publication US20060229338A1, “2,3'-bipyridines derivatives as selective cox-2 inhibitors” (priority 2003, published 2006).

Broadly, the IC50 is the point on the concentration scale where inhibition reaches its midpoint.

The structures appear in SMILES notation.

The target of one assay is T1, COX-1 (Homo sapiens, UniProt P23219).
T1 construct: Fresh blood from healthy volunteers; from tissue; host or cells: fresh heparinized human whole blood from healthy volunteers
T1 sequence (P23219 24-599): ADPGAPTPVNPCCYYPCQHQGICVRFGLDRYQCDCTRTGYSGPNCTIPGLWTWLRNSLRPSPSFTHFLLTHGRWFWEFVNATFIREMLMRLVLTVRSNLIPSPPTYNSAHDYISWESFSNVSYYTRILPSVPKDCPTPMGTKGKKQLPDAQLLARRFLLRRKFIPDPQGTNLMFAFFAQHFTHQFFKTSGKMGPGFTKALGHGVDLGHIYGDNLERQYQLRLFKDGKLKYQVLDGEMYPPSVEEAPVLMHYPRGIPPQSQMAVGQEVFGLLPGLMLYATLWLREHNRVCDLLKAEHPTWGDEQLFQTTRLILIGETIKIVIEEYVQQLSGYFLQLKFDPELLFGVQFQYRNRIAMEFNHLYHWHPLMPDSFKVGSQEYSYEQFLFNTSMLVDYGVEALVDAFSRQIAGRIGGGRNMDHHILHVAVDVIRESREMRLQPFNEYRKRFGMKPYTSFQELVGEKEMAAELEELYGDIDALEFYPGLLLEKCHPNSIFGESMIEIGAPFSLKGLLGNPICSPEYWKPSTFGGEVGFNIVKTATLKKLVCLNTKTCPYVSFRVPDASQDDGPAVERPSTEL
Briefly: COX-1 activity in human whole blood (TXB2 by EIA after calcium ionophore A23187). It counts as cell-based. The settings on record: 24 h at 37° C., A23187 25 μM, TXB2 levels. Here is the method:
(§1) COX-1 and COX-2 Activities in Human Whole Blood
Fresh blood from healthy volunteers who had not taken any non-steroidal anti-inflammatory drugs for at least 7 days prior to blood extraction was collected in heparinized tubes (20 units of heparin per ml). For the COX-1 activity determination, 500 μl aliquots of blood were incubated with either 5 μl vehicle (dimethylsulphoxide) or 5 μl of a test compound for 24 h at 37° C. Calcium ionophore A23187 (25 μM) was added 20 min before stopping the incubation. Plasma was separated by centrifugation (10 min at 13000 rpm) and kept at −30° C. until TXB2 levels were measured using an enzyme immunoassay kit (EIA).
The effect of the compounds was evaluated by incubating each compound at five to six different concentrations with triplicate determinations. IC50 values were obtained by non-linear regression using InPlot, GraphPad software on an IBM computer.

In another assay the target is T2, COX-2 (Homo sapiens, UniProt P35354).
T2 construct: incubated in the presence of LPS (10 μg/ml) for 24 h at 37° C. in order to induce the COX-2 expression; from tissue; host or cells: fresh heparinized human whole blood from healthy volunteers, LPS-stimulated
T2 sequence (P35354 18-604): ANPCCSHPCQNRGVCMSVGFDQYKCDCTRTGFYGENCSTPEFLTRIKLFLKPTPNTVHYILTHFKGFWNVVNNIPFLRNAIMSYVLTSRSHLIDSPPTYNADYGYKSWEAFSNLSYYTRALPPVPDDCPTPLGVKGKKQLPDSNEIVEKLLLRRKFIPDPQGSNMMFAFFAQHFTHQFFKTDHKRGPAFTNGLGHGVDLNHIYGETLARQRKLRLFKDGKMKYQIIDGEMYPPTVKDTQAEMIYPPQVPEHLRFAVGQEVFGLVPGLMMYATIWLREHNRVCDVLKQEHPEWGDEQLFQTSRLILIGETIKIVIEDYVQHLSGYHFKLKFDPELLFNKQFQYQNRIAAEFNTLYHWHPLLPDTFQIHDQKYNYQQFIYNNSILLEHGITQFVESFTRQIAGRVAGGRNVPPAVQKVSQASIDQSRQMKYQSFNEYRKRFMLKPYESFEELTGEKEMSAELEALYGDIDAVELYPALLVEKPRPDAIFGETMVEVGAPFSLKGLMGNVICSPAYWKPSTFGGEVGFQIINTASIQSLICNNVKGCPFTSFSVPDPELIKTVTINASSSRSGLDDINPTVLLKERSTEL
Briefly: COX-2 activity in human whole blood (PGE2 by EIA after LPS induction). It counts as cell-based. Particulars: for IC50: LPS 10 μg/ml, 24 h at 37° C., PGE2 levels. Here is the method:
as §1
For the COX-2 activity determination, 500 μl aliquots of blood were incubated in the presence of LPS (10 μg/ml) for 24 h at 37° C. in order to induce the COX-2 expression (Patriagnani et al., J. Pharm. Exper. Ther. 271; 1705-1712 (1994)). Plasma was separated by centrifugation (10 min at 13000 rpm) and kept at −30° C. until PGE2 levels were measured using an enzyme immunoassay kit (EIA). The effects of inhibitors were studied by incubating each compound (5 μl aliquots) at five to six different concentrations with triplicate determinations in the presence of LPS for 24 hours. IC50 values were obtained by non-linear regression using InPlot, GraphPad software on an IBM computer.

`Cc1ccc(-c2ncc(Cl)cc2-c2ccc([S+](C)[O-])cc2)cn1` (single isomer, unassigned) [5-chloro-6′methyl-3-[4-(methylsulfinyl)phenyl]-2,3′-bipyridine (Enantiomer 1b), 5-Chloro-6′-methyl-3-[4-(methylsulfinyl)phenyl]-2,3′-bipyridine (Enantiomer 1b)]: the IC50 amounted to 77.8 µM at COX-1 and 3.5 µM at COX-2.

As to `Cc1ccc(-c2ncc(Cl)cc2-c2ccc([S+](C)[O-])cc2)cn1` (racemic) [5-chloro-6′methyl-3-[4-(methylsulfinyl)phenyl]-2,3′-bipyridine (racemate), 5-Chloro-6′-methyl-3-[4-(methylsulfinyl)phenyl]-2,3′-bipyridine], the half-maximal inhibitory concentration (IC50) on COX-1 was found to be 45.5 µM; at COX-2, 3.7 µM. Also, the “Ratio COX-1/COX-2” value on COX-2 (ratio of COX-1/COX-2 IC50 values) came to 12.3.

`Cc1ccc(-c2ncc(Cl)cc2-c2ccc([S+](C)[O-])cc2)cn1` (single isomer, unassigned) [5-chloro-6′methyl-3-[4-(methylsulfinyl)phenyl]-2,3′-bipyridine (Enantiomer 1a), 5-Chloro-6′-methyl-3-[4-(methylsulfinyl)phenyl]-2,3′-bipyridine (Enantiomer 1a)]: the IC50 on COX-1 worked out at 20.2 µM.
